This note sets out measurements from patent publication US20080261911A1, “Uses of diphenyl/diphenylamine carboxylic acids” (priority 2006, published 2008).

Series [1] concerns Bic-1 esophageal cancer cells. The experiment in a line: Western blot of Sp and Sp-dependent proteins in BIC-1 esophageal cancer cells. It counts as cell-based. Particulars: Bic-1 cells, 25-100 μM. The protocol: Cells are washed once with phosphate buffered saline PBS and collected by scraping in 200 μL of lysis buffer [50 mM HEPES, 0.5M sodium chloride, 1.5 mM magnesium chloride, 1 mM EGTA, 10% (v/v) glycerol, 1% Triton X-100, 5 μL/ml of Protease Inhibitor Cocktail (Sigma)]. The lysates from the cells are incubated on ice for 1 hr with intermittent vortexing followed by centrifugation at 40,000 g for 10 min at 4° C. Equal amounts of protein (60 μg) from each treatment group are diluted with loading buffer, boiled and loaded onto 10 and 12.5% SDS-polyacrylamide gel. For vascular endothelial growth factor immunoblots, 100 μg of protein are used. Samples are electrophoresed, transferred to membranes, and proteins detected by incubation with polyclonal primary antibodies Sp1, Sp3, Sp4, HDAC, VEGF (a-20), c-Met, surviving, VEGF, cleaved PARP, and β-tubulin (H-235) followed by blotting with appropriate horseradish peroxidase-conjugated secondary antibody as previously described (Abdelrahim et al, 2004). After autoradiography, band intensities are determined by a scanning laser densitometer (Sharp Electronics Corporation, Mahwah, N.J.) using ZERO-D SCANALYTICS software (Scanalytics Corporation, Billerica, Mass.).
(A western blot detects proteins with antibodies after separation by electrophoresis.)

The test system of series [2] is orthotopically implanted human pancreatic L3.6p1 cancer cells. The experiment in a line: Orthotopic pancreatic tumor model in athymic nude mice. The conditions noted are these: for Body Weight Median / Incidence Liver metastasis / Pancreatic Tumor Incidence (positive mice/mice injected) / Tumor Volume Median / Tumor Weight Median: thrice weekly oral from day 7, sacrificed day 35. How it is done:
Median tumor volumes (FIG. 8A) and weights (FIG. 8B) in athymic nude mice treated orthotopically with L3.6pl cells, and corn oil (control), tolfenamic acid (25 and 50 mg/kg), and gemcitabine (50 mg/kg) were determined. […] Tumors from the various treatment groups were analyzed for Sp1, Sp3, Sp4, and VEGF protein expression by Western blot analysis. […] Immunostaining is shown for VEGF (FIG. 8D), and CD31 (FIG. 8E). Pancreatic tumor sections from animals treated with solvent (control), gemcitabine (50 mg/kg) and tolfenamic acid (25 and 50 mg/kg) were immunostained with VEGF and CD31 antibodies.
Male athymic nude mice (NCI-nu) are purchased from the Animal Production Area of the National Cancer Institute Frederick Cancer Research and Development Center, housed and maintained under specific pathogen-free conditions in accordance with current regulations and standards of the United States Department of Agriculture. Injection of L3.6pl cells (with greater than 90% viability is performed as previously described (Bruns et al, 1999). Seven days after implantation of tumor cells into the pancreas of each mouse, five mice are killed to confirm the presence of tumor lesions.
Mice (10 animals per treatment group) are randomized to receive one of the following treatments: (1) thrice weekly oral administrations of vehicle solution which will serve as a control group; (2) thrice weekly oral administrations of at least three non-steroidal anti-inflammatory drugs at doses of 10, 25, and 50 mg/kg/day; (3) twice weekly intraperitoneal injections of 50, 75, and 100 mg/kg/day gemcitabine alone; and (4) combinations of gemcitabine and non-steroidal anti-inflammatory drugs. Mice are sacrificed on day 35 and body weights measured. Primary tumors in the pancreas are excised, measured, weighed. For immunohistochemistry (IHC) and hematoxylin and eosin (H&E) staining procedures, one part of the tumor tissue is fixed in formalin and embedded in paraffin, and another part is embedded in TISSUE-TEK® O.C.T. compound, rapidly frozen in liquid nitrogen, and stored at −70° C. Visible liver metastases are counted with the aid of a dissecting microscope, and the tissues processed for hematoxylin and eosin staining.
Paraffin-embedded tissues are used for identification of Sp proteins, VEGFR2p27 and vascular endothelial growth factor. Tissue sections ([…] thick) are mounted on positively charged SUPERFROST slides (Fischer Scientific, Co, Houston, Tex.) and dried overnight. Sections are deparaffinized in xylene and treated with a graded series of alcohol [100, 95, and 80% ethanol (v/v) in double distilled H2O] and rehydrated in phosphate buffered saline (pH 7.5). Tissues are treated with pepsin (Biomeda) for 15 min at 37° C. and washed with phosphate buffered saline. A positive reaction is visualized by incubating the slides with stable 3,3′-diaminobenzidine for 10-20 min. Sections are rinsed with distilled water, counterstained with Gill's hematoxylin for 1 min, and mounted with UNIVERSAL MOUNT (Research Genetics). […] Tumor sample lysates are also examined by western blot analysis for the same proteins.
The potential anti-tumorigenic and anti-angiogenic activity of tolfenamic acid against pancreatic tumors was investigated in an orthotopic athymic nude mouse model. L3.6pl cells were used for this study based on their aggressive growth and production of liver metastases (Bruns et al, 1999; Dubois et al, 1998).

Series [3] has as its system Sp protein interactions with VEGFR1 promoter sequences. The experiment in a line: Gel mobility shift of Panc-1 nuclear extracts with VEGFR1 32P and GC/SP 32P. Particulars: nuclear extracts of Panc-1 cells treated with 50 μM for 48 h. It counts as cell-based.
Protocol: The specific Sp protein bands and antibody supershifted complexes are indicated with arrows.
Vascular endothelial growth factor and VEGFR1 oligonucleotides are synthesized and annealed, and 5 pmol aliquots are 5′-end-labeled using T4 kinase and [y-^32P]ATP. After the reaction sample was incubated 20 min on ice, and antibodies against Sp1, Sp3, and Sp4 proteins are added and incubated another 20 min on ice.
FIGS. 16A and 16B compare the gel mobility shift and antibody supershift patterns of nuclear extracts from Panc-1 cells bound to the proximal region of the VEGFR1 promoter containing both GC-rich and Egr-1 sites (VEGFR1^32P) or GC-rich sites alone (GC/SP^32P).
Setting [4] is: tolfenamic acid 50 mg/kg, p < 0.005 vs controls.

Marks after values point to notes of the source that are not given here.

As to `Cc1c(Cl)cccc1Nc1ccccc1C(=O)O` [tolfenamic acid], in series [1], the “apoptosis as shown by PARP cleavage” value is “induced apoptosis”; the “expression of Sp-dependent proteins VEGF, survivin, and c-Met” value is “decreased expression of Sp-dependent proteins vascular endothelial growth factor (VEGF), survivin, and c-Met”; the “protein expression of Sp1, Sp3, and Sp4” value was “decreased protein expression of Sp1, Sp3, and Sp4”. Further, in series [2] (25 or 50 mg/kg/d), the “median tumor weights and volumes” value was “decreased median tumor weights and volumes”; the “percent incidence of liver metastasis” value is given as “decreased the percent incidence of liver metastasis”. Also, the “tumor growth inhibition compared with gemcitabine” value in series [2] (at comparable doses) is given as “more effective than gemcitabine as a tumor growth inhibitor”. For the same compound, the “CD31 staining (microvessel density) in tumors” value in series [2] (compared to tumors from vehicle (corn oil) or gemcitabine-treated animals) is reported as “decreased staining”. Moreover, in series [2] (tolfenamic acid 25 mg/kg), the “Body Weight Median” value is 25 g, the “Incidence Liver metastasis” value is reported as 1/10, the “Pancreatic Tumor Incidence (positive mice/mice injected)” value is on record as 10/10 and the “Tumor Volume Median” value stood at 1732.8 mm^3. In series [2] (tolfenamic acid 25 mg/kg), the “Tumor Weight Median” value is reported as 1.2 g. In series [2] (tolfenamic acid 50 mg/kg), the “Body Weight Median” value came to 24 g, the “Incidence Liver metastasis” value is on record as 1/10 and the “Pancreatic Tumor Incidence (positive mice/mice injected)” value is given as 10/10. Further, in series [2] (setting [4]), the “Tumor Volume Median” value was 348.8^c mm^3 and the “Tumor Weight Median” value is 0.4^c g. In addition, in series [2] (tolfenamic acid 25 and 50 mg/kg), the “immunostaining for vascular endothelial growth factor in tumor sections” value is given as “decreased staining”. In series [2] (tolfenamic acid 25 and 50 mg/kg, gemcitabine 50 mg/kg and solvent as comparison), the “VEGFR1 staining of tumor tissue” value is given as “decreased VEGFR1 expression only in tumors from tolfenamic acid-treated mice”. Moreover, the “expression of Sp1, Sp3, Sp4 and vascular endothelial growth factor in pancreatic tumors, Western blot” value in series [2] (tolfenamic acid versus corn oil control-treated animals) was “significantly decreased expression of Sp1, Sp3, Sp4 and vascular endothelial growth factor”. In addition, the “Sp1, Sp3, and Sp4-DNA retarded band intensity with VEGFR1 32P and GC/SP 32P” value in series [3] is listed as “retarded band intensity was markedly decreased”.
